# According to ChEMBL document CHEMBL1201862, “PubChem BioAssay data set” (2004):
#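 Cultured in 96-well plates, cells were exposed to test compound for 48 hours across five concentrations. GI50: concentration for 50% inhibition of growth.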 Activity calls are given as the source filed them. No stated cut-off is given here; in the data, active = GI50 up to about 1.1 µM and inactive = higher. Where a SMILES comes first, the peptide text is derived from it. The star is where a group is joined. Boc = CC(C)(C)OC(=O)*; tBu = CC(C)(C)*
# Experiments:
# Test in all cases: growth of human tumour cells (NCI), 48 h
# SR = tested on: SR
# HCT-15 = tested on: HCT-15
# MOLT-4 = tested on: MOLT-4
# SF-539 = tested on: SF-539
# MDA-MB-231 = tested on: MDA-MB-231
# EKVX = tested on: EKVX
# SK-MEL-28 = tested on: SK-MEL-28
# NCI-H226 = tested on: NCI-H226
# UACC-257 = tested on: UACC-257
# IGROV-1 = tested on: IGROV-1
# MDA-MB-435 = tested on: MDA-MB-435
# HOP-92 = tested on: HOP-92
# HL-60 = tested on: HL-60
# U-251 = tested on: U-251
# Hs-578T = tested on: Hs-578T
# BT-549 = tested on: BT-549
# PC-3 = tested on: PC-3
# RXF 393 = tested on: RXF 393
# MCF7 = tested on: MCF7
# MDA-N = tested on: MDA-N
# HCT-116 = tested on: HCT-116
# SNB-75 = tested on: SNB-75
# LOX IMVI = tested on: LOX IMVI
# SK-OV-3 = tested on: SK-OV-3
# SNB-19 = tested on: SNB-19
# ACHN = tested on: ACHN
# HT-29 = tested on: HT-29
# A549 = tested on: A549
# COLO 205 = tested on: COLO 205
# SN12C = tested on: SN12C
# KM12 = tested on: KM12
# NCI-H460 = tested on: NCI-H460
# SW-620 = tested on: SW-620
# T47D = tested on: T47D
# TK-10 = tested on: TK-10
# HCC 2998 = tested on: HCC 2998
# OVCAR-4 = tested on: OVCAR-4
# NCI/ADR-RES = tested on: NCI/ADR-RES
# SK-MEL-2 = tested on: SK-MEL-2
# UO-31 = tested on: UO-31
# OVCAR-8 = tested on: OVCAR-8
# CCRF-CEM = tested on: CCRF-CEM
# CAKI-1 = tested on: CAKI-1
# OVCAR-5 = tested on: OVCAR-5
# HOP-62 = tested on: HOP-62
# K562 = tested on: K562
# 786-0 = tested on: 786-0
# UACC-62 = tested on: UACC-62
# OVCAR-3 = tested on: OVCAR-3
# SF-295 = tested on: SF-295
# M14 = tested on: M14
# RPMI-8226 = tested on: RPMI-8226
# NCI-H23 = tested on: NCI-H23
# DU-145 = tested on: DU-145
# SF-268 = tested on: SF-268
# Malme-3M = tested on: Malme-3M
# SK-MEL-5 = tested on: SK-MEL-5
# NCI-H522 = tested on: NCI-H522
smiles,measurement,setting,value
CC(OC(C)(C)C)C(NC(=O)C(N)CCCCNC(=O)OC(C)(C)C)C(=O)NC(Cc1ccccc1)C(=O)O (stereo unspecified) (H-Lys(Boc)-Thr(tBu)-Phe-OH; configuration not given here),GI50,SR,> 100 µM (inactive)
same,GI50,HCT-15,> 100 µM
same,GI50,MOLT-4,> 100 µM (inactive)
same,GI50,SF-539,> 100 µM (inactive)
same,GI50,MDA-MB-231,> 100 µM (inactive)
same,GI50,EKVX,> 100 µM (inactive)
same,GI50,SK-MEL-28,> 100 µM (inactive)
same,GI50,NCI-H226,> 100 µM (inactive)
same,GI50,UACC-257,> 100 µM (inactive)
same,GI50,IGROV-1,> 100 µM (inactive)
same,GI50,MDA-MB-435,> 100 µM (inactive)
same,GI50,HOP-92,> 100 µM (inactive)
same,GI50,HL-60,> 100 µM (inactive)
same,GI50,U-251,> 100 µM (inactive)
same,GI50,Hs-578T,> 100 µM (inactive)
same,GI50,BT-549,> 100 µM (inactive)
same,GI50,PC-3,> 100 µM (inactive)
same,GI50,RXF 393,> 100 µM (inactive)
same,GI50,MCF7,> 100 µM (inactive)
same,GI50,MDA-N,> 100 µM (inactive)
same,GI50,HCT-116,> 100 µM (inactive)
same,GI50,SNB-75,> 100 µM (inactive)
same,GI50,LOX IMVI,> 100 µM (inactive)
same,GI50,SK-OV-3,15.2 µM (inactive)
same,GI50,SNB-19,> 100 µM (inactive)
same,GI50,ACHN,> 100 µM (inactive)
same,GI50,HT-29,> 100 µM (inactive)
same,GI50,A549,> 100 µM (inactive)
same,GI50,COLO 205,> 100 µM (inactive)
same,GI50,SN12C,> 100 µM (inactive)
same,GI50,KM12,> 100 µM (inactive)
same,GI50,NCI-H460,> 100 µM (inactive)
same,GI50,SW-620,> 100 µM (inactive)
same,GI50,T47D,> 100 µM (inactive)
same,GI50,TK-10,> 100 µM (inactive)
same,GI50,HCC 2998,> 100 µM (inactive)
same,GI50,OVCAR-4,> 100 µM (inactive)
same,GI50,NCI/ADR-RES,> 100 µM (inactive)
same,GI50,SK-MEL-2,> 100 µM (inactive)
same,GI50,UO-31,> 100 µM (inactive)
same,GI50,OVCAR-8,> 100 µM (inactive)
same,GI50,CCRF-CEM,> 100 µM (inactive)
same,GI50,CAKI-1,> 100 µM (inactive)
same,GI50,OVCAR-5,> 100 µM (inactive)
same,GI50,HOP-62,> 100 µM (inactive)
same,GI50,K562,> 100 µM (inactive)
same,GI50,786-0,> 100 µM (inactive)
same,GI50,UACC-62,> 100 µM (inactive)
same,GI50,OVCAR-3,> 100 µM (inactive)
same,GI50,SF-295,> 100 µM (inactive)
same,GI50,M14,> 100 µM (inactive)
same,GI50,RPMI-8226,> 100 µM (inactive)
same,GI50,NCI-H23,> 100 µM (inactive)
same,GI50,DU-145,> 100 µM (inactive)
same,GI50,SF-268,> 100 µM (inactive)
same,GI50,Malme-3M,> 100 µM (inactive)
same,GI50,SK-MEL-5,> 100 µM (inactive)
COc1cc(OC)c(OC)cc1/C=C/c1ccc2ccccc2n1,GI50,SR,3.57 µM (inactive)
same,GI50,HCT-15,7.62 µM
same,GI50,MOLT-4,3.78 µM (inactive)
same,GI50,SF-539,3.53 µM (inactive)
same,GI50,MDA-MB-231,> 10 µM (inactive)
same,GI50,SK-MEL-28,> 10 µM (inactive)
same,GI50,UACC-257,> 10 µM (inactive)
same,GI50,IGROV-1,> 10 µM (inactive)
same,GI50,MDA-MB-435,7.23 µM (inactive)
same,GI50,HOP-92,5.57 µM (inactive)
same,GI50,HL-60,3.27 µM (inactive)
same,GI50,U-251,> 10 µM (inactive)
same,GI50,Hs-578T,3.44 µM (inactive)
same,GI50,BT-549,8.89 µM (inactive)
same,GI50,PC-3,6.08 µM (inactive)
same,GI50,MCF7,9.57 µM (inactive)
same,GI50,NCI-H522,5.41 µM (inactive)
same,GI50,MDA-N,8.07 µM (inactive)
same,GI50,HCT-116,3.72 µM (inactive)
same,GI50,SNB-75,9.71 µM (inactive)
same,GI50,LOX IMVI,> 10 µM (inactive)
same,GI50,SK-OV-3,> 10 µM (inactive)
same,GI50,ACHN,> 10 µM (inactive)
same,GI50,HT-29,4.35 µM (inactive)
same,GI50,A549,> 10 µM (inactive)
same,GI50,COLO 205,> 10 µM (inactive)
same,GI50,SN12C,> 10 µM (inactive)
same,GI50,KM12,7.85 µM (inactive)
same,GI50,SW-620,> 10 µM (inactive)
same,GI50,T47D,6.97 µM (inactive)
same,GI50,TK-10,> 10 µM (inactive)
same,GI50,HCC 2998,> 10 µM (inactive)
same,GI50,OVCAR-4,> 10 µM (inactive)
same,GI50,NCI/ADR-RES,7.6 µM (inactive)
same,GI50,OVCAR-8,> 10 µM (inactive)
same,GI50,CCRF-CEM,6.17 µM (inactive)
same,GI50,CAKI-1,> 10 µM (inactive)
same,GI50,OVCAR-5,> 10 µM (inactive)
same,GI50,HOP-62,> 10 µM (inactive)
same,GI50,K562,5.33 µM (inactive)
same,GI50,786-0,> 10 µM (inactive)
same,GI50,UACC-62,6.44 µM (inactive)
same,GI50,OVCAR-3,> 10 µM (inactive)
same,GI50,SF-295,9.71 µM (inactive)
same,GI50,M14,> 10 µM (inactive)
same,GI50,RPMI-8226,3.66 µM (inactive)
same,GI50,NCI-H23,2.89 µM (inactive)
same,GI50,DU-145,> 10 µM (inactive)
same,GI50,SF-268,> 10 µM (inactive)
same,GI50,Malme-3M,> 10 µM (inactive)
same,GI50,SK-MEL-5,8.77 µM (inactive)
CCNCCNc1c2ccccc2nc2ccccc12,GI50,SR,0.594 µM (active)
same,GI50,HCT-15,1.48 µM
same,GI50,MOLT-4,0.54 µM (active)
same,GI50,SF-539,0.745 µM (active)
same,GI50,MDA-MB-231,1.24 µM (inactive)
same,GI50,EKVX,2.44 µM (inactive)
same,GI50,UACC-257,1.66 µM (inactive)
same,GI50,IGROV-1,1.88 µM (inactive)
same,GI50,MDA-MB-435,1.21 µM (inactive)
same,GI50,HL-60,2.24 µM (inactive)
same,GI50,Hs-578T,1.98 µM (inactive)
same,GI50,BT-549,2.84 µM (inactive)
same,GI50,PC-3,0.828 µM (active)
same,GI50,RXF 393,1.23 µM (inactive)
same,GI50,MCF7,0.565 µM (active)
same,GI50,NCI-H522,1.04 µM (active)
same,GI50,MDA-N,1.28 µM (inactive)
same,GI50,HCT-116,0.515 µM (active)
same,GI50,SNB-75,1.53 µM (inactive)
same,GI50,LOX IMVI,0.743 µM (active)
same,GI50,SK-OV-3,1.07 µM (active)
same,GI50,SNB-19,1.01 µM (active)
same,GI50,ACHN,0.366 µM (active)
same,GI50,HT-29,0.427 µM (active)
same,GI50,A549,1.56 µM (inactive)
same,GI50,COLO 205,0.822 µM (active)
same,GI50,SN12C,0.938 µM (active)
same,GI50,KM12,1.58 µM (inactive)
same,GI50,NCI-H460,0.453 µM (active)
same,GI50,SW-620,0.147 µM (active)
same,GI50,T47D,2.38 µM (inactive)
same,GI50,TK-10,2.91 µM (inactive)
same,GI50,HCC 2998,0.127 µM (active)
same,GI50,OVCAR-4,1.14 µM (inactive)
same,GI50,NCI/ADR-RES,2.72 µM (inactive)
same,GI50,SK-MEL-2,1.51 µM (inactive)
same,GI50,UO-31,1.49 µM (inactive)
same,GI50,OVCAR-8,1.81 µM (inactive)
same,GI50,CCRF-CEM,1.29 µM (inactive)
same,GI50,CAKI-1,0.698 µM (active)
same,GI50,OVCAR-5,1.13 µM (inactive)
same,GI50,HOP-62,0.461 µM (active)
same,GI50,K562,0.551 µM (active)
same,GI50,786-0,0.791 µM (active)
same,GI50,UACC-62,1.49 µM (inactive)
same,GI50,OVCAR-3,4.05 µM (inactive)
same,GI50,SF-295,1.21 µM (inactive)
same,GI50,M14,1.39 µM (inactive)
same,GI50,NCI-H23,1.26 µM (inactive)
same,GI50,DU-145,1.62 µM (inactive)
same,GI50,SF-268,1.35 µM (inactive)
same,GI50,Malme-3M,1.7 µM (inactive)
same,GI50,SK-MEL-5,1.66 µM (inactive)
